In ChEMBL document CHEMBL3045546, “Synthesis and antimicrobial screening of 4-thiazolidinone and 2-azetidinone derivatives of piperazine” (2013):
Values after ≈ are worked out from the molar mass of the structure shown.

Legend:
Assay type in all cases: functional
[1] = tested on: Klebsiella pneumoniae; experiment: Antimicrobial activity against Klebsiella pneumoniae ATCC 13883 assessed as growth inhibition by broth dilution method
[2] = tested on: Salmonella typhi; experiment: Antimicrobial activity against Salmonella enterica subsp. enterica serovar Typhi ATCC 19430 assessed as growth inhibition by broth dilution method
[3] = tested on: Staphylococcus hominis; experiment: Antimicrobial activity against Staphylococcus hominis ATCC 27844 assessed as growth inhibition by broth dilution method
[4] = tested on: Rhizoctonia solani; experiment: Antimicrobial activity against Rhizoctonia solani ATCC 76131 assessed as growth inhibition by broth dilution method
[5] = tested on: Escherichia coli; experiment: Antimicrobial activity against Escherichia coli ATCC 25922 assessed as growth inhibition by broth dilution method
[6] = tested on: Fusarium solani; experiment: Antimicrobial activity against Fusarium solani ATCC 38136 assessed as growth inhibition by broth dilution method
[7] = tested on: Bacillus cereus; experiment: Antimicrobial activity against Bacillus cereus ATCC 11778 assessed as growth inhibition by broth dilution method
[8] = tested on: Micrococcus luteus; experiment: Antimicrobial activity against Micrococcus luteus ATCC 4698 assessed as growth inhibition by broth dilution method
[9] = tested on: Proteus mirabilis; experiment: Antimicrobial activity against Proteus mirabilis ATCC 49565 assessed as growth inhibition by broth dilution method
[10] = tested on: Microsporum canis; experiment: Antimicrobial activity against Arthroderma otae ATCC 11622 assessed as growth inhibition by broth dilution method
[11] = tested on: Pseudomonas aeruginosa; experiment: Antimicrobial activity against Pseudomonas aeruginosa ATCC 10145 assessed as growth inhibition by broth dilution method
[12] = tested on: Candida albicans; experiment: Antimicrobial activity against Candida albicans ATCC 10231 assessed as growth inhibition by broth dilution method
[13] = tested on: Trichoderma viride; experiment: Antimicrobial activity against Hypocrea rufa ATCC 52440 assessed as growth inhibition by broth dilution method
[14] = tested on: Bacillus pumilus; experiment: Antimicrobial activity against Bacillus pumilus ATCC 14884 assessed as growth inhibition by broth dilution method
[15] = tested on: Staphylococcus aureus; experiment: Antimicrobial activity against Staphylococcus aureus ATCC 25923 assessed as growth inhibition by broth dilution method
[16] = tested on: Aspergillus flavus; experiment: Antimicrobial activity against Aspergillus flavus ATCC 15517 assessed as growth inhibition by broth dilution method
[17] = tested on: Bacillus subtilis; experiment: Antimicrobial activity against Bacillus subtilis ATCC 6633 assessed as growth inhibition by broth dilution method
[18] = tested on: Aspergillus fumigatus; experiment: Antimicrobial activity against Aspergillus fumigatus assessed as growth inhibition by broth dilution method
[19] = tested on: Aspergillus awamori; experiment: Antimicrobial activity against Aspergillus awamori ATCC 22342 assessed as growth inhibition by broth dilution method
[20] = tested on: Staphylococcus epidermidis; experiment: Antimicrobial activity against Staphylococcus epidermidis ATCC 12228 assessed as growth inhibition by broth dilution method
[21] = tested on: Alternaria alternata; experiment: Antimicrobial activity against Alternaria alternata ATCC 66868 assessed as growth inhibition by broth dilution method
[22] = tested on: Aspergillus niger; experiment: Antimicrobial activity against Aspergillus niger ATCC 9142 assessed as growth inhibition by broth dilution method
[23] = tested on: Trichophyton longifusum; experiment: Antimicrobial activity against Trichophyton longifusum ATCC 22397 assessed as growth inhibition by broth dilution method
[24] = tested on: Proteus vulgaris; experiment: Antimicrobial activity against Proteus vulgaris ATCC 13315 assessed as growth inhibition by broth dilution method

In the case of `COc1ccc(C2SCC(=O)N2CCN2CCNCC2)cc1` (configuration not stated), the MIC [1] is reported as 9.37 mg/L (≈ 29.1 µM), the MIC [2] is reported as 4.68 mg/L (≈ 14.6 µM) and the MIC [3] is reported as 4.68 mg/L (≈ 14.6 µM). The MIC [4] was 9.73 mg/L (≈ 30.3 µM), the MIC [5] was 9.37 mg/L (≈ 29.1 µM) and the MIC [6] was 18.8 mg/L (≈ 58.3 µM). It also gave an MIC [7] of 4.68 mg/L (≈ 14.6 µM), an MIC [8] of 9.37 mg/L (≈ 29.1 µM) and an MIC [9] of 9.37 mg/L (≈ 29.1 µM). It also gave an MIC [10] of 18.8 mg/L (≈ 58.3 µM), an MIC [11] of 9.37 mg/L (≈ 29.1 µM) and an MIC [12] of 9.73 mg/L (≈ 30.3 µM). For the same compound, the MIC [13] was 9.73 mg/L (≈ 30.3 µM), the MIC [14] was 9.37 mg/L (≈ 29.1 µM) and the MIC [15] was 9.37 mg/L (≈ 29.1 µM). The MIC [16] was 18.8 mg/L (≈ 58.3 µM), the MIC [17] was 9.37 mg/L (≈ 29.1 µM) and the MIC [18] was 9.73 mg/L (≈ 30.3 µM). For the same compound, the MIC [19] was 9.73 mg/L (≈ 30.3 µM), the MIC [20] was 9.37 mg/L (≈ 29.1 µM) and the MIC [21] was 18.8 mg/L (≈ 58.3 µM). It also gave an MIC [22] of 18.8 mg/L (≈ 58.3 µM), an MIC [23] of 18.8 mg/L (≈ 58.3 µM) and an MIC [24] of 9.37 mg/L (≈ 29.1 µM).
Compound `O=C(CCl)N1CCN(CCN2C(=O)C(Cl)C2c2cccc(O)c2)CC1` (configuration not stated) has an MIC [1] of 37.5 mg/L (≈ 97.1 µM), an MIC [2] of 37.5 mg/L (≈ 97.1 µM) and an MIC [3] of 37.5 mg/L (≈ 97.1 µM). The MIC [4] was 37.5 mg/L (≈ 97.1 µM), the MIC [5] was 18.8 mg/L (≈ 48.5 µM) and the MIC [6] was 37.5 mg/L (≈ 97.1 µM). For the same compound, the MIC [7] was 37.5 mg/L (≈ 97.1 µM), the MIC [8] was 18.8 mg/L (≈ 48.5 µM) and the MIC [9] was 37.5 mg/L (≈ 97.1 µM). It also gave an MIC [10] of 75 mg/L (≈ 194 µM), an MIC [11] of 37.5 mg/L (≈ 97.1 µM) and an MIC [12] of 37.5 mg/L (≈ 97.1 µM). It also gave an MIC [13] of 37.5 mg/L (≈ 97.1 µM), an MIC [14] of 37.5 mg/L (≈ 97.1 µM) and an MIC [15] of 37.5 mg/L (≈ 97.1 µM). The MIC [16] was 75 mg/L (≈ 194 µM), the MIC [17] was 18.8 mg/L (≈ 48.5 µM) and the MIC [18] was 75 mg/L (≈ 194 µM). For the same compound, the MIC [19] was 75 mg/L (≈ 194 µM), the MIC [20] was 18.8 mg/L (≈ 48.5 µM) and the MIC [21] was 37.5 mg/L (≈ 97.1 µM). It also gave an MIC [22] of 37.5 mg/L (≈ 97.1 µM), an MIC [23] of 75 mg/L (≈ 194 µM) and an MIC [24] of 18.8 mg/L (≈ 48.5 µM).
`O=C1CSC(c2ccccc2)N1CCN1CCNCC1` (configuration not stated) showed an MIC [1] of 37.5 mg/L (≈ 129 µM), an MIC [2] of 18.8 mg/L (≈ 64.3 µM) and an MIC [3] of 37.5 mg/L (≈ 129 µM). The MIC [4] was 37.5 mg/L (≈ 129 µM), the MIC [5] was 37.5 mg/L (≈ 129 µM) and the MIC [6] was 37.5 mg/L (≈ 129 µM). The MIC [7] was 37.5 mg/L (≈ 129 µM), the MIC [8] was 75 mg/L (≈ 257 µM) and the MIC [9] was 37.5 mg/L (≈ 129 µM). It also gave an MIC [10] of 37.5 mg/L (≈ 129 µM), an MIC [11] of 37.5 mg/L (≈ 129 µM) and an MIC [12] of 37.5 mg/L (≈ 129 µM). For the same compound, the MIC [13] was 75 mg/L (≈ 257 µM), the MIC [14] was 75 mg/L (≈ 257 µM) and the MIC [15] was 37.5 mg/L (≈ 129 µM). The MIC [16] was 75 mg/L (≈ 257 µM), the MIC [17] was 37.5 mg/L (≈ 129 µM) and the MIC [18] was 37.5 mg/L (≈ 129 µM). The MIC [19] was 75 mg/L (≈ 257 µM), the MIC [20] was 75 mg/L (≈ 257 µM) and the MIC [21] was 75 mg/L (≈ 257 µM). It also gave an MIC [22] of 75 mg/L (≈ 257 µM), an MIC [23] of 75 mg/L (≈ 257 µM) and an MIC [24] of 18.8 mg/L (≈ 64.3 µM).
